From article PMC8208304 (2021)
Values belong to the compound of their own block, whether it stands above or below them.

How the values were obtained:
[1] = system: S1 + S2 (split ATP aptamer / split G-quadruplex receptor) (DNA, aptamer, internal C12 spacer (iSpC12) after position 12 of strand 1 and after position 16 of strand 2) TGGGTGGGTTTTTTTACCTGGGGGAGTAT/TGCGGAGGAAGGTTTTTTTAGGGCGGGT; assay: G4-hemin peroxidase activity (Amplex Red) in LUVs; details: ATP 0-1.0 mM; hemin 4 μM; 100 mM Tris-HCl pH 7.0; functional readout
[2] = system: S1 + S2 (split ATP aptamer / split G-quadruplex receptor) (DNA, aptamer, internal C12 spacer (iSpC12) after position 12 of strand 1 and after position 16 of strand 2) TGGGTGGGTTTTTTTACCTGGGGGAGTAT/TGCGGAGGAAGGTTTTTTTAGGGCGGGT; assay: ThT fluorescence enhancement at 504 nm; details: 2.2-fold with 1.0 mM ATP; ThT 20 μM; 1.0 μM strands; 100 mM Tris-HCl pH 7.4
[3] = system: S1 + S2 (split ATP aptamer / split G-quadruplex receptor) (DNA, aptamer, internal C12 spacer (iSpC12) after position 12 of strand 1 and after position 16 of strand 2) TGGGTGGGTTTTTTTACCTGGGGGAGTAT/TGCGGAGGAAGGTTTTTTTAGGGCGGGT; assay: G4-hemin Amplex Red peroxidase fluorescence in LUVs; details: 100 mM Tris-HCl pH 7.0; functional readout; used instead of ATP; concentration not given
[4] = system: S1 + S2 (split ATP aptamer / split G-quadruplex receptor) (DNA, aptamer, internal C12 spacer (iSpC12) after position 12 of strand 1 and after position 16 of strand 2) TGGGTGGGTTTTTTTACCTGGGGGAGTAT/TGCGGAGGAAGGTTTTTTTAGGGCGGGT; assay: SYBR Green I fluorescence melting; details: derived from two Tm (46.2 to 55.0 °C); 1.0 mM ATP; 1.0 μM strands; 100 mM Tris-HCl pH 7.4
[5] = system: FAM-S1 + TAMRA-S2 (DNA, aptamer, internal C12 spacer (iSpC12) after position 11 of strand 1 and after position 16 of strand 2) TGGGTGGGTTTTTTACCTGGGGGAGTAT/TGCGGAGGAAGGTTTTTTTAGGGCGGGT; assay: FRET in LUVs; details: ATP 0-1.0 mM; FAM-S1:TAMRA-S2 1:5; Fa/Fd 0.4 to 0.5

SMILES: C=CC1=C(C)C2=Cc3c(C=C)c(C)c4[n]3[Fe]([Cl])[n]3c(c(C)c(CCC(=O)O)c3=CC3=NC(=C4)C(C)=C3CCC(=O)O)=CC1=N2
binding [1]: yes

SMILES: Cc1ccc2c(c1)sc(-c1ccc(N(C)C)cc1)[n+]2C
binding [2]: yes

SMILES: Nc1nc2c(ncn2[C@@H]2O[C@H](CO)[C@@H](O)[C@H]2O)c(=O)[nH]1
binding [3]: no

SMILES: Nc1ncnc2c1ncn2[C@@H]1O[C@H](COP(=O)(O)OP(=O)(O)OP(=O)(O)O)[C@@H](O)[C@H]1O
ΔTm (melting temperature shift) [4]: 8.8 °C | binding [5]: yes

Other lines, results leading:

binding [3]: no
SMILES: Nc1ccn([C@@H]2O[C@H](CO)[C@@H](O)[C@H]2O)c(=O)n1

binding [3]: no
SMILES: O=c1ccn([C@@H]2O[C@H](CO)[C@@H](O)[C@H]2O)c(=O)[nH]1
